The test system of test [1] is pS6RP(S235/236), PC3 cells. As to the kind of experiment: In-cell Western assay, pS6RP(S235/236) in PC3 cells. Type of test: cell-based, human. To be noted: Homo sapiens, PC-3, In-cell Western. The method, boiled down:
(§1)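 Overnight-seeded PC3 cells were treated 2 h with serially diluted compound, then fixed and immunostained with phospho-specific primary antibodies and Eu-labelled secondary. Time-resolved Eu signal read at 615 nm (ex 340 nm), normalised by Hoechst 33258 staining (ex 355/em 460 nm); IC50 from sigmoidal dose-response fit.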

The subject of test [2] is PC3 cells. Put plainly: In vivo efficacy study (tumor growth suppression), PC3 xenograft. To be noted: PC3 xenograft mice, after 14 days of dosing at 40 mg/kg bid po. As to the method:
PC3 cells were cultured at 37° C. in a 5% CO2 incubator using Hams F12 K medium. Five million (5×10^6) cells were implanted subcutaneously to the right flank of athymic male mice (Harlan, age: 6-7 weeks, weight: about 20 g). Tumor bearing mice were randomized when the tumor volume reached about 100 mm^3. Ten mice were used per group. Dosage regimen of compounds of formula (I) were scheduled on the basis of the PK, PK-PD and maximum tolerated dose studies. Compounds of formula (I) were formulated using HPCD in PBS, pH 7.4 and dosed orally (dose volume, 10 mL/kg). Solutions of the compounds were prepared immediately before dosing the animals. A vehicle control and a reference compound were included along with test compounds.
The tumor size was measured on alternate days using Vernier® calipers. Assuming tumors to be ellipsoid, the tumor volume was calculated using the formula: V=(D×d^2)/2 […]
Changes in tumor volume (Δ volumes) for each treated (T) and control (C) group were calculated by subtracting the mean tumor volume on the first day of treatment (starting day) from the mean tumor volume on the specified observation day. […]
Percentage tumor growth inhibition was calculated as [100−% T/C]. Percentage body weight change was calculated as [(Body weight on specified observation day−Body weight on starting day)/Body weight on starting day]×100. […]

The test system of test [3] is PC3 cells. Put plainly: XTT assay for cell viability, PC3 cells. Type of test: cell-based, human. The following applies: Homo sapiens, PC-3, cell viability. The method, boiled down:
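PC3 cells seeded at 1000 cells/well, grown 24 h, then exposed to serial dilutions of compound for 96 h. Viability read by XTT dye at 37° C, absorbance 465 nm. EC50 from sigmoidal dose-response fit.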

The target of test [4] is T1, PI3Kα (wild-type), P110/P85α (Homo sapiens, UniProt P42336).
T1 construct: made in house; host or cells: SF9 insect cells
As to the kind of experiment: PI3 Kinase TR-FRET assay, PI3Kα (wild-type). The class given is biochemical. The essentials: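 Sf9-expressed His-purified P110/P85α (5 ng) preincubated 60 min RT with compound and PIP2 in buffer with 40 mM MgCl2, 5 mM DTT; reaction started with ATP (PIP2 and ATP both 10 μM), 30 min RT. PIP3 detected by TR-FRET displacement, 665/615 nm ratio; IC50 from dose-response curves.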
For orientation: TR-FRET usually uses a lanthanide donor and a delayed reading to cut background.

The target of another test is T2, mTOR kinase (Homo sapiens, UniProt P42345).
T2 construct: purchased Millipore, USA
Put plainly: mTOR kinase TR-FRET assay. Type of test: biochemical. The following applies: read-out: mTO R. The essentials:
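Compounds preincubated 60 min with mTOR (5 ng) in HEPES pH 7.5, EGTA, MnCl2; ULight-p70 S6K Thr389 peptide (50 nM) and ATP (20 μM) then added, 60 min at room temperature. EDTA-stopped, Eu-anti-phospho antibody detection by TR-FRET (665/615 nm); IC50 from variable-slope sigmoidal fit.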

A further test deals with PI3 kinase isoform β (Homo sapiens, UniProt P42338). As to the kind of experiment: PI3 Kinase TR-FRET assay, isoform β. Type of test: biochemical. To be noted: read-out: inhibition of PI3 kinase isoform β, IC50. As to the method: The ability of compounds of the invention to inhibit PI3K activity was determined in a homogeneous TR-FRET assay using a PI3K assay kit (Millipore, USA; cat #33-016) according to manufacturer's instructions. PI3-Kinases (isoforms α, β, γ and δ) catalyze the phosphorylation of phosphatidylinositol, PIP2 to PIP3 in the presence of ATP and Mg^2+. The PIP3 product is detected by displacement of biotin-PIP3 from an energy transfer complex consisting of Europium labeled anti-GST monoclonal antibody, a GST-tagged PH domain, biotinylated PIP3 and Streptavidin-APC. Excitation of Europium in the complex results in an energy transfer to the APC and a fluorescence emission at 665 nm. The PIP3 product displaces biotin-PIP3 from the complex resulting in a loss of energy transfer and thus a decrease in signal.
To test for the ability of compounds to inhibit the activity of PI3Kα (wild-type), exemplary compounds of formula (I) were dissolved in DMSO and directly distributed into 384-well plates at a volume of 0.5 μL. 14.5 μL of P110/P85α/PIP2 mixture in buffer (obtained from the Millipore kit) containing MgCl2 (40 mM) and DTT (5 mM) was added to compound wells and incubated for 60 min at room temperature. P110/P85α was expressed in SF9 insect cells and purified nickel column extraction. Five ng of wild-type P110/P85α was used in the assay. The kinase reaction was started by the addition of ATP. The assay concentrations of both PIP2 and ATP were 10 μM. The reaction mixture was incubated for 30 min at room temperature and was terminated by the addition of stop mix and detection mix. Fluorescence was measured at 615 and 665 nm upon excitation at 340 nm in a Victor™ V5 fluorometer (Perkin Elmer, USA). The fluorescence emission ratio at 665 to 615 nm, proportional to the kinase activity, was plotted against the compound concentration to generate dose-response curves and IC50 values were determined using GraphPad Prism® 5 software.
The activity of PI3 kinase isoforms β, γ and δ were assayed in a similar manner to the assay protocol described above for PI3Kα, by substituting the appropriate p110/p85 isoform for the p110α/p85α. Compounds of formula (I) caused inhibition of PI3 kinase isoforms β, γ and δ as determined by these assays. For example, the compounds of examples 3, 51, 54, 111, 113, 115, and 253 each caused inhibition of PI3 kinase isoform β with IC50 values <50 nM. The compounds of examples 104, 133, 146 and 152 each caused inhibition of PI3 kinase isoform β with IC50 values <500 nM. The compounds of examples 3, 51, 54, 104, 111, 113, 115, 133, 253, and 152 each caused inhibition of PI3 kinase isoform γ with IC50 values <500 nM. […] The compounds of examples 2, 3, 51, 54, 111, 113, and 253 each caused inhibition of PI3 kinase isoform […] with IC50 values >1 μM.

Test [5] concerns pAKT(5473) (phosphorylated at serine 473), PC3 cells. As to the kind of experiment: In-cell Western assay, pAKT(5473) in PC3 cells. Type of test: cell-based. The following applies: Homo sapiens, PC-3, In-cell Western, read-out: pAkt-S473. The method, boiled down:
as §1

The next test concerns pS6RP in PC3 tumor. Put plainly: In vivo PK/PD study, PC3 tumor bearing mice, pS6RP. To be noted: Mus musculus, 50 mg/kg po, at 3 and 8 hours. How it is done: PC3 cells were cultured at 37° C. in a 5% CO2 incubator using Hams F12 K medium. Ten million (10^7) cells were injected subcutaneously to the right flank region of athymic male mice (Harlan, age: 6-7 weeks, weight: about 20 g). Tumor bearing mice were randomized when the tumor volume reached about 250 mm^3 and three mice were used per each time point. Test compounds of formula (I) were formulated in 40% HPCD in 1×PBS, pH 7.4 and dosed orally at 50 mg/kg single dose (dose volume−10 mL/kg). Plasma and tumor samples were collected at 0 (vehicle control animals), 1, 4 and 24 hours post dosing. Blood was drawn (retro orbital) to a tube containing 0.2% EDTA for plasma collection. The tumor was excised from the mouse and immediately frozen in liquid nitrogen for PD analysis. Tumor and plasma drug concentrations were measured for PK analysis using LC-MS.
Snap frozen tumor samples were pulverized in a mortar (Belart) containing liquid nitrogen and tumor powder was stored at −80° C. until analysis. Pre coated ELISA kits (Cell Signaling Technology; pAKT(T308), CST#7135; pAKT(5473), CST#7134 and pS6RP, CST#7205) were used for PD analysis. Tumor powder was transferred to Eppendorf® tubes and lysis buffer (1 mL) was added to the powder. Protease and phosphatase inhibitors (SIGMA) and phenylmethanesulfonylfluoride (PMSF) were added to tumor powder and mixed by vortexing followed by sonication (15 sec). Samples were kept on an ice bath for 30 min. Supernatant was separated after centrifugation at 10,000 rpm for 20 min at 4° C. Supernatant was re-centrifuged and fresh supernatant was aliquoted to different tubes. Total protein was estimated using a BCA kit (Thermo Scientific) and 50 μg total protein was loaded to each well. ELISA analysis was carried out as per manufacturer's instructions. The detection for pAKT was based on chemiluminescence and pS6RP was based on absorbance. Qualitative assessments of the suppression of pAKT(T308), pAKT(5473), and pS6RP were also carried out by standard Western blot analyses.
For example, the compound of Example 1, at 50 mg/kg po, caused about 50% inhibition of pAkt(5473) at 1 and 4 hours and >50% inhibition of pS6RP at 1, 4 and 24 hours. Also, the compound of Example 2, at 50 mg/kg po, caused about 25-30% inhibition of pAkt(5473) at 4 and 24 hours and >50% inhibition of pS6RP at 1, 4 and 24 hours. The compound of example 51, at 30 mg/kg po, caused >50% inhibition of pS6RP at 2, 4 and 24 hours. Also, the compounds of examples 133, 146, 147, and 228, at 50 mg/kg po, each caused >50% inhibition of pS6RP at 3 and 8 hours.

Test [6] relates to pAKT(T308) (phosphorylated at threonine 308), PC3 cells. Put plainly: In-cell Western assay, pAKT(T308) in PC3 cells. Type of test: cell-based. The following applies: Homo sapiens, PC-3, In-cell Western. How it is done: Cells from human prostate cancer cell line PC3 (American Type Culture Collection (ATCC), Manassas, Va. 20108 USA) were seeded at an optimal density of 22,000 cell/well in 96-well plates containing Ham's F12K medium (90 μL) and incubated overnight. The compound dilutions were carried out in 100% DMSO followed by a dilution in the medium. Test compounds were added in serial dilutions to the wells and incubated for 2 h. The cells were washed and fixed with 4% paraformaldehyde. After incubation at room temperature for 1 h in the dark, blocking was done for 2 h at room temperature. Primary antibodies for phosphorylated (p) AKT(5473) (phosphorylated at serine 473), pAKT(T308) (phosphorylated at threonine 308) and for pS6RP(S235/236) (phosphorylated at serine 235/236) (commercially available from Cell Signaling Technology®, whose protocol was followed for the in-cell western assay, were diluted to the required concentration and added to the corresponding wells followed by overnight incubation at 4° C. Eu-labeled rabbit (PE) (Perkin-Elmer USA catalog #AD0106) secondary antibody was added and incubated for 2 h at room temperature. Delfia® enhancement solution (cat #1244-105, Perkin Elmer USA) was subsequently added to the plate before taking the reading at 615 nm with excitation wavelength of 340 nm, after which 0.5 μg/mL of Hoechst® 33258 dye (Catalog #86140-5, Sigma) was added to the plate and fluorescence emission was read at 460 nm with 355 nm excitation, to evaluate the correction factor. IC50 values were calculated using a sigmoidal dose-response curve fit in GraphPad Prism® v5 software.

As a reminder, the inhibition is how much of the control response was suppressed. A higher inhibition goes with a strong effect.

T1 sequence (P42336 whole entry): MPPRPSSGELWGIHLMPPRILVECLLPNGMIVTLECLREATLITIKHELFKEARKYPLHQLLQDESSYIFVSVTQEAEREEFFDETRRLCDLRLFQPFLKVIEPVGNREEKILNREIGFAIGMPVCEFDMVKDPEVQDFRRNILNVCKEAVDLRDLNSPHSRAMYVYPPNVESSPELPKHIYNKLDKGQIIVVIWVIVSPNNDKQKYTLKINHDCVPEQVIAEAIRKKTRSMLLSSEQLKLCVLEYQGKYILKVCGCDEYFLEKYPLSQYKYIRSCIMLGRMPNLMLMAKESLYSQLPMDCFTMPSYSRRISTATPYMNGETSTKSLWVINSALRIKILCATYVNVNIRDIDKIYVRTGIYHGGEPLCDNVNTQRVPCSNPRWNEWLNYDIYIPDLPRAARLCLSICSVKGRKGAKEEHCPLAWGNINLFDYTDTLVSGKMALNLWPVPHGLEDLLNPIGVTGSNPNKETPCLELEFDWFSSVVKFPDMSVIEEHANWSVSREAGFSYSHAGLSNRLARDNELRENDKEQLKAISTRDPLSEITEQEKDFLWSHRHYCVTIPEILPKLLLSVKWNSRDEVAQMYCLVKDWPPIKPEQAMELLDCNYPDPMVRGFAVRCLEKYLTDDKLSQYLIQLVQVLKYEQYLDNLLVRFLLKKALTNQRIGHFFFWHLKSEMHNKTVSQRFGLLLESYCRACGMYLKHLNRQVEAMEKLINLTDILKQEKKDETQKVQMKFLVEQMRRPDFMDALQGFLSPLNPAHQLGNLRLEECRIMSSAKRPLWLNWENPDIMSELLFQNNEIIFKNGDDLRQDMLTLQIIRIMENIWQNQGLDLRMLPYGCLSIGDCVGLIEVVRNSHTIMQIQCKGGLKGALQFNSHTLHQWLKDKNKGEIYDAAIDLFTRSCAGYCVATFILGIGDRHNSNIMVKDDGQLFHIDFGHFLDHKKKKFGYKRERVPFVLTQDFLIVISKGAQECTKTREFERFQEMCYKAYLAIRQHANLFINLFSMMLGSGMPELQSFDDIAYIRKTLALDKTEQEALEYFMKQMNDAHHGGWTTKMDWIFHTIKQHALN
T1 sequence (P27986 whole entry partner): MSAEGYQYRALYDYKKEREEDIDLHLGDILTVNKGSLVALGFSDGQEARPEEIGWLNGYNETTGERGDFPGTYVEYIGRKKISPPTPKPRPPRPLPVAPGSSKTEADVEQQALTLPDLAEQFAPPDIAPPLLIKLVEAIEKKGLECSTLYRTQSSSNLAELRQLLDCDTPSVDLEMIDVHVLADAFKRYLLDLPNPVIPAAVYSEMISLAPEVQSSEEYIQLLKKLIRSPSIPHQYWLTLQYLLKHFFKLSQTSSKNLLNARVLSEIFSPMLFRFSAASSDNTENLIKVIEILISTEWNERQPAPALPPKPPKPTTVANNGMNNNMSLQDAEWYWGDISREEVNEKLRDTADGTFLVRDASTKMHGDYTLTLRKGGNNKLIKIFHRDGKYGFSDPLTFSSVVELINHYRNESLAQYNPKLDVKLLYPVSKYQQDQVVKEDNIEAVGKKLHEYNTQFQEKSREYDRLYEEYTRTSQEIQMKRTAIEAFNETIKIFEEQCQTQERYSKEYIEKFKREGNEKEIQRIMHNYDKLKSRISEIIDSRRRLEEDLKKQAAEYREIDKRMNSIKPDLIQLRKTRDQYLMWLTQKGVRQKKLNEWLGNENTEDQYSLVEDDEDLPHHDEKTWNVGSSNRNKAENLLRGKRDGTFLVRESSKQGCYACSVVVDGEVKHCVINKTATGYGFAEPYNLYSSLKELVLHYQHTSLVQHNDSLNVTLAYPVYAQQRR
PI3 kinase isoform β, sequence (P42338 whole entry, the tested form may be a part, canonical isoform): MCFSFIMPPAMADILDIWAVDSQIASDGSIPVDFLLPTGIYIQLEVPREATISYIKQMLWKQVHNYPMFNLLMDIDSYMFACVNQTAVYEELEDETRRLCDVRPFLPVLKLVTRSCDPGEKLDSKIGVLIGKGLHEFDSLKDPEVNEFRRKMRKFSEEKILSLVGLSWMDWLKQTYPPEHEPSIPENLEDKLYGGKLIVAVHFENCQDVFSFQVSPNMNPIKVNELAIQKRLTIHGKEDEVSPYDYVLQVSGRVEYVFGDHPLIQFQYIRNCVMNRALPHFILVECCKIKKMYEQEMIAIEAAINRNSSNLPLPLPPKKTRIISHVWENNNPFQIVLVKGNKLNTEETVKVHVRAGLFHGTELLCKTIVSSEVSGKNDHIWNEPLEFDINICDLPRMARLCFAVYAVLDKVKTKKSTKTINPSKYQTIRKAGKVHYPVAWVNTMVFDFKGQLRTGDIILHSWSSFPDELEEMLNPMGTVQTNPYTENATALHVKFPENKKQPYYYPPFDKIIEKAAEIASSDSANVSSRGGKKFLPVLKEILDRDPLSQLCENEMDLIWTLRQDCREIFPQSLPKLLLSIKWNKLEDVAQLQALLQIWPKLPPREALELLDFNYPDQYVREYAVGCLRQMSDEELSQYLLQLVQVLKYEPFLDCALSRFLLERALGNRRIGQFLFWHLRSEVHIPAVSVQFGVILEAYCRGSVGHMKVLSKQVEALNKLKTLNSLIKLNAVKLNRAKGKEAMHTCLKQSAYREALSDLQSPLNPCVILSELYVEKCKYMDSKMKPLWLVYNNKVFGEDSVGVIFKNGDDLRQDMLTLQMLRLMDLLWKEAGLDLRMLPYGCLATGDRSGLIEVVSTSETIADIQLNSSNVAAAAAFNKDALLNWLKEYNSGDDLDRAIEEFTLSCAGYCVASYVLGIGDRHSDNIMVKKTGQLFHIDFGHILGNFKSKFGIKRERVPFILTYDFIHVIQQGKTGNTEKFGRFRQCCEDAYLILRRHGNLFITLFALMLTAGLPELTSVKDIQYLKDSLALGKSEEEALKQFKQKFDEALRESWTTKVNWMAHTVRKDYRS
PI3 kinase isoform β, sequence (P27986 whole entry partner, the tested form may be a part, canonical isoform): as the sequence (P27986 whole entry partner) above

With `CN(C)C(=O)c1ccc(NC(=O)Nc2ccc(-c3nc(N4CCOCC4)c4ncc(-c5cnn(C)c5)cc4n3)cc2F)cc1` [Example 82, 4-(3-(2-fluoro-4-(7-(1-methyl-1H-pyrazol-4-yl)-4-morpholino-pyrido[3,2-d]pyrimidin-2-yl)phenyl)ureido)-N,N-dimethyl-benzamide], the IC50 is 0.201 to 10 µM in test [1], 0.201 to 10 µM in the test on PC3 cells [3], less than 0.05 µM in test [4] and less than 0.05 µM at mTOR kinase. In the test on PC3 cells [2], the “tumor growth inhibition relative to vehicle control group” value was “about 60%”.
For `CN(C)C(=O)c1ccc(NC(=O)Nc2ccc(-c3nc(N4CCOCC4)c4ncc(-c5cccc(S(C)(=O)=O)c5)cc4n3)cc2F)cc1` [Example 104, 4-(3-(2-fluoro-4-(7-(3-(methylsulfonyl)phenyl)-4-morpholino-pyrido[3,2-d]pyrimidin-2-yl)phenyl)ureido)-N,N-dimethyl-benzamide], the IC50 in test [1] was 0.201 to 10 µM; in the test with PC3 cells [3], 0.201 to 10 µM; in [4] it was less than 0.05 µM; at PI3 kinase isoform β, less than 0.5 µM; on mTOR kinase, less than 0.05 µM; in [5], less than 0.1 µM.
For `COc1ncc(-c2ccc3c(N4CCOCC4)nc(-c4ccc(NC(=O)Nc5ccc(C(=O)N(C)C)cc5F)cc4)nc3c2)cn1` [Example 147, 3-fluoro-4-(3-(4-(7-(2-methoxypyrimidin-5-yl)-4-morpholino-quinazolin-2-yl)phenyl)ureido)-N,N-dimethyl-benzamide], the inhibition at 50 mg/kg in the test on pS6RP in PC3 tumor was more than 50%. Also, the IC50 is 0.201 to 10 µM in test [6], 0.05 to 0.2 µM in [4], less than 0.05 µM at mTOR kinase and less than 0.1 µM in [5].
With `CN(C)C(=O)c1ccc(NC(=O)Nc2ccc(-c3nc(N4CCOCC4)c4ccc(-c5ccc(CO)o5)cc4n3)cc2)cc1` [Example 183, 4-(3-(4-(7-(5-(hydroxymethyl)furan-2-yl)-4-morpholino-quinazolin-2-yl)phenyl)ureido)-N,N-dimethyl-benzamide], the IC50 in [1] is 0.201 to 10 µM; in the test on PC3 cells [3], 0.201 to 10 µM; in [4] it was less than 0.05 µM; at mTOR kinase, less than 0.05 µM. For the same molecule, in the test with PC3 cells [2], the “tumor growth inhibition relative to vehicle control group” value is given as “about 60%”.

The record behind these values is US9115092B2, “Substituted quinazoline and pyrido-pyrimidine derivatives” (Asana Biosciences, LLC, priority 2010, dated 2015).
